From ChEMBL document CHEMBL3414460, “Antiprotozoal activity and DNA binding of dicationic acridones” (J Med Chem, 2015)
pIC50: −log10 of the molar value. “And” between values parts separate entries of the source, which are not always exact repeats. Identical values can stand only once. The source made the active and inactive calls. No cut-off for these calls is given here.

Experiments:
[1] = test system: Trypanosoma brucei rhodesiense; test: Antiprotozoal activity against bloodstream form of Trypanosoma brucei rhodesiense STIB900 trypomastigote by alamar-blue assay; format: functional, organism-based
Mus musculus = test: Toxicity in NMRI mouse infected with Trypanosoma brucei rhodesiense STIB900 at 20 mg/kg, ip administered for 4 days; format: organism-based; set-up: dose 20 mg/kg, route intraperitoneal; details: in vivo, 96 h
[2] = Selectivity index, ratio of CC50 for rat L6 cells to IC50 for Plasmodium falciparum NF54; format: functional
Leishmania donovani = test: Antiprotozoal activity against axenic amastigote stage of Leishmania donovani MHOM-ET-67/L82 by alamar-blue assay; format: functional, organism-based
Trypanosoma cruzi = test: Antiprotozoal activity against intracellular amastigote stage of Trypanosoma cruzi Tulahuen C4 by colorimetric assay; format: functional, organism-based
[3] = Selectivity index, ratio of CC50 for rat L6 cells to IC50 for bloodstream form of Trypanosoma brucei rhodesiense STIB900; format: functional
Plasmodium falciparum [4] = test: Antiprotozoal activity against intraerythrocytic stage of chloroquine-sensitive Plasmodium falciparum NF54 by [3H]hypoxanthine incorporation assay; format: functional, organism-based
[5] = test system: Trypanosoma brucei rhodesiense; test: Antitrypanosomal activity against Trypanosoma brucei rhodesiense STIB900 infected in NMRI mouse assessed as time duration by measuring mean day of relapse at 5 mg/kg, ip administered for 4 days; format: functional; details: route intraperitoneal
[6] = (§1) Cytotoxicity against rat L6 cells; format: cell-based; details: L6 cells
[7] = Binding affinity to fish sperm DNA assessed as hypochromicity after 1 min by UV-Vis spectrophotometry; set-up: concentration or dose not given beside the values
Plasmodium falciparum [8] = test: Antiprotozoal activity against intraerythrocytic stage of chloroquine/pyrimethamine-resistant Plasmodium falciparum K1 by [3H]hypoxanthine incorporation assay; format: functional, organism-based
L6 = test: as §1; format: cell-based; details: l6
Hyperoartia [9] = test: Binding affinity to fish sperm DNA by circular dichroism spectroscopy
[10] = test system: Trypanosoma brucei rhodesiense; test: Antitrypanosomal activity against Trypanosoma brucei rhodesiense STIB900 infected in NMRI mouse assessed as cure at 20 mg/kg, ip administered for 4 days; format: functional, organism-based; set-up: dose 20 mg/kg
[11] = Selectivity index, ratio of CC50 for rat L6 cells to IC50 for Plasmodium falciparum K1; format: functional
Hyperoartia [12] = test: Binding affinity to fish sperm DNA assessed as positive band of unvarying intensity at compound/DNA ratio 0.5 to 0.6 by circular dichroism spectroscopy
Hyperoartia [13] = test: Binding affinity to fish sperm DNA assessed as weak negative band at compound/DNA ratio 1 to 2 by circular dichroism spectroscopy
Hyperoartia [14] = test: Binding affinity to fish sperm DNA assessed as reduction in positive band at compound/DNA ratio 1 to 2 by circular dichroism spectroscopy
[15] = test system: Trypanosoma brucei rhodesiense; test: Antitrypanosomal activity against Trypanosoma brucei rhodesiense STIB900 infected in NMRI mouse assessed as cure at 5 mg/kg, ip administered for 4 days; format: functional, organism-based; set-up: dose 5 mg/kg
[16] = test system: Trypanosoma brucei rhodesiense; test: Antitrypanosomal activity against Trypanosoma brucei rhodesiense STIB900 infected in NMRI mouse assessed as time duration by measuring mean day of relapse at 20 mg/kg, ip administered for 4 days; format: functional; details: route intraperitoneal
[17] = test system: Trypanosoma brucei rhodesiense; test: Antitrypanosomal activity against Trypanosoma brucei rhodesiense STIB900 infected in NMRI mouse assessed as cure at 50 mg/kg, po administered for 4 days; format: functional, organism-based; set-up: dose 50 mg/kg
[18] = test system: Trypanosoma brucei rhodesiense; test: Antitrypanosomal activity against Trypanosoma brucei rhodesiense STIB900 infected in NMRI mouse assessed as time duration by measuring mean day of relapse at 50 mg/kg, po administered for 4 days; format: functional

Row | Compound | pIC50 (Leishmania donovani) | pIC50 (Trypanosoma cruzi) | Ratio CC50/IC50 [3] | CC50 [6] | pIC50 ([1]; Trypanosoma brucei, STIB900) | Activity [7] | pIC50 (Plasmodium falciparum [8]) | also measured
1 | Cl.Cl.O=c1c2ccc(NC3=NCCN3)cc2[nH]c2cc(NC3=NCCN3)ccc12 | 3.95 | < 3.64 | 2210 | 137 µM |  |  |  | pIC50 [1]: 7.21; Activity (Mus musculus): Non-toxic; Ratio CC50/IC50 [2]: 546; pIC50 (Plasmodium falciparum [4]): 6.60; Time [5]: 14 days
2 | Cn1c2ccc(NC3=NCCN3)cc2c(=O)c2cc(NC3=NCCN3)ccc21.O=C(O)C(F)(F)F.O=C(O)C(F)(F)F |  |  | 14843 | 104 µM | 8.15 | 48% |  | Ratio CC50/IC50 [2]: 468; pIC50 (Plasmodium falciparum [4]; Plasmodium falciparum, NF54): 6.66
3 | Nc1ccc2c(=O)c3cc([N+](=O)[O-])ccc3[nH]c2c1 | 3.54 | 3.55 |  | 147 µM | 4.17 |  | 4.47 | 
4 | CCCCCCCCCCCCCCCCOP(=O)([O-])OCC[N+](C)(C)C [MILTEFOSINE] | 6.35 |  |  |  |  |  |  | 
5 | Nc1ccc2[nH]c3ccc(N)cc3c(=O)c2c1 | 3.49 | 3.83 |  | 75 µM | 5.54 |  | 5.60 | 
6 | O=C(O)C(F)(F)F.O=C(O)C(F)(F)F.O=c1c2ccc(NC3=NCCN3)cc2[nH]c2cc(NC3=NCCN3)ccc12 |  |  | 1647 |  | 7.22 |  |  | Ratio CC50/IC50 [2]: 1149; pIC50 (Plasmodium falciparum [4]): 7.05; CC50 (L6): 99 µM
7 | Nc1ccc2[nH]c3ccc([N+](=O)[O-])cc3c(=O)c2c1 | 4.11 | 3.54 |  | 186 µM | 4.71 |  | 4.31 | 
8 | O=C(O)C(F)(F)F.O=C(O)C(F)(F)F.O=C1c2ccc(NC3=NCCN3)cc2C(=O)c2ccc(NC3=NCCN3)cc21 | 3.84 | 3.98 |  | 75 µM | 5.64 | 46% | 7.22 | Activity (Hyperoartia [9]): Active; Activity [10]: Active; Ratio CC50/IC50 [11]: 1229
9 | Cn1c2ccc(NC3=NCCN3)cc2c(=O)c2ccc(NC3=NCCN3)cc21.O=C(O)C(F)(F)F.O=C(O)C(F)(F)F |  |  | 12287 | 98 µM | 8.10 | 50% |  | Ratio CC50/IC50 [2]: 175; pIC50 (Plasmodium falciparum [4]; Plasmodium falciparum, NF54): 6.25
10 | O=c1c2ccc(NC3=NCCN3)cc2[nH]c2cc(NC3=NCCN3)ccc12 |  |  |  |  |  | 40% and 35% |  | Activity (Hyperoartia [12]): Active; Activity (Hyperoartia [9]): Active; Activity (Hyperoartia [13]): Active; Activity (Hyperoartia [14]): Active; Activity [15]: inactive
11 | Cl.Cl.O=c1c2ccc(NC3=NCCN3)cc2[nH]c2ccc(NC3=NCCN3)cc12 | 4.14 | < 3.64 | 15257 | 107 µM | 8.15 | 47% |  | Ratio CC50/IC50 [2]: 128; Time [16]: >50 days; Activity (Hyperoartia [9]): Active; Activity [10]: Active; pIC50 (Plasmodium falciparum [4]; Plasmodium falciparum, NF54): 6.08
12 | COc1cc([C@@H]2c3cc4c(cc3[C@H](O)[C@H]3COC(=O)[C@H]23)OCO4)cc(OC)c1OC [PODOFILOX] |  |  |  | 0.012 µM |  |  |  | 
13 | CC(C)(C)OC(=O)N1CCN(C(=O)OC(C)(C)C)C1=Nc1ccc2[nH]c3ccc(N=C4N(C(=O)OC(C)(C)C)CCN4C(=O)OC(C)(C)C)cc3c(=O)c2c1 | < 3.90 | 4.30 |  | 73 µM | 5.66 |  | 4.48 | 
14 | Nc1ccc(Nc2ccc([N+](=O)[O-])cc2C(=O)O)cc1 | 4.64 | 3.53 |  | > 365 µM | 4.26 |  | 4.28 | 
15 | Nc1cccc(Nc2ccc([N+](=O)[O-])cc2C(=O)O)c1 | 4.21 | 3.57 |  | 266 µM | 3.91 |  | 4.15 | 
16 | Cl.Cl.O=c1c2cc(NC3=NCCN3)ccc2[nH]c2ccc(NC3=NCCN3)cc12 | 3.75 | < 3.64 | >3333 | > 230 µM | 7.16 | 49% | 6.47 | Time [16]: >45.5 days; Activity [17]: inactive; Activity [10]: Active; Time [18]: 22 days; Ratio CC50/IC50 [11]: >666
17 | Nc1ccc2c(=O)c3cc(N)ccc3[nH]c2c1 | 3.54 | 3.57 |  | 23 µM | 4.72 |  | 5.32 | 
